Experimental findings from ChEMBL document CHEMBL3758105 (J Med Chem, 2016) are described below.

In data set [1] the test system is Hepatocyte. The data set can be described thus: Drug level in human hepatocytes treated with N-(4-Fluoro-3-methoxybenzyl)-6-(2-(((2S,5R)-5-(hydroxymethyl)-1,4-dioxan-2-yl)methyl)-2H-tetrazol-5-yl)-2-methylpyrimidine-4-carboxamide. It counts as ADME, cell-based.
The next data set addresses Collagenase 3 (Homo sapiens, UniProt P45452). The data set can be described thus: Inhibition of full length human recombinant MMP13 using MCA-Arg-Pro-Leu-Gly-Leu-Dpa-Ala-Arg-Glu-Arg-NH2 as substrate preincubated for 60 mins followed by substrate addition by fluorescence assay.
Data set [2] in a line: Drug level in cynomolgus monkey urine treated with N-(4-Fluoro-3-methoxybenzyl)-6-(2-(((2S,5R)-5-(hydroxymethyl)-1,4-dioxan-2-yl)methyl)-2H-tetrazol-5-yl)-2-methylpyrimidine-4-carboxamide. It counts as ADME, tissue-based, Macaca fascicularis. Conditions: in vivo.
In data set [3] the test system is Rattus norvegicus. The data set can be described thus: Drug level in Sprague-Dawley rat treated with N-(4-Fluoro-3-methoxybenzyl)-6-(2-(((2S,5R)-5-(hydroxymethyl)-1,4-dioxan-2-yl)methyl)-2H-tetrazol-5-yl)-2-methylpyrimidine-4-carboxamide at 1 mg/kg, po. It counts as ADME, organism-based. Conditions: in vivo.
The test system of data set [4] is Cynomolgus monkey. The data set can be described thus: Drug level in cynomolgus monkey treated with N-(4-Fluoro-3-methoxybenzyl)-6-(2-(((2S,5R)-5-(hydroxymethyl)-1,4-dioxan-2-yl)methyl)-2H-tetrazol-5-yl)-2-methylpyrimidine-4-carboxamide at 1 mg/kg, po. The following applies: in vivo. It counts as ADME, organism-based, Macaca fascicularis.
The nature of data set [5]: Drug level in cynomolgus monkey hepatocytes treated with N-(4-Fluoro-3-methoxybenzyl)-6-(2-(((2S,5R)-5-(hydroxymethyl)-1,4-dioxan-2-yl)methyl)-2H-tetrazol-5-yl)-2-methylpyrimidine-4-carboxamide. It counts as ADME, cell-based, Macaca fascicularis, Hepatocyte.
Data set [6] is described as follows: Clearance in beagle dog at 1 mg/kg, po and iv. It counts as ADME, organism-based, Canis lupus familiaris. Conditions: in vivo.
In data set [7] the test system is Hepatocyte. The data set is described as follows: Drug metabolism in human hepatocytes assessed as demethylation. It counts as ADME, cell-based.
Data set [8] can be described thus: Oral bioavailability in cynomolgus monkey at 1 mg/kg. It counts as ADME, organism-based, Macaca fascicularis. The following applies: in vivo.
A short description of data set [9]: Drug metabolism in cynomolgus monkey hepatocytes assessed as sulfate conjugation. It counts as ADME, cell-based, Macaca fascicularis, Hepatocyte.
Data set [10] relates to Rattus norvegicus. The data set is described as follows: Drug metabolism in Sprague-Dawley rat assessed as (2S,5S)-5-((5-(6-((4-Fluoro-3-methoxybenzyl)carbamoyl)-2-methylpyrimidin-4-yl)-2H-tetrazol-2-yl)methyl)-1,4-dioxane-2-carboxylic acid formation at 1 mg/kg, po. It counts as ADME, organism-based. Conditions: in vivo.
The nature of data set [11]: Drug metabolism in cynomolgus monkey hepatocytes assessed as methyl oxidation. It counts as ADME, cell-based, Macaca fascicularis, Hepatocyte.
Data set [12] in a line: Drug metabolism in cynomolgus monkey urine assessed as methyl oxidation. It counts as ADME, tissue-based, Macaca fascicularis.
Data set [13] has as its system Hepatocyte. The data set can be described thus: Drug metabolism in human hepatocytes assessed as methyl oxidation. It counts as ADME, cell-based.
The test system of data set [14] is Hepatocyte. The data set is described as follows: Drug metabolism in human hepatocytes assessed as glucuronidation. It counts as ADME, cell-based.
A short description of data set [15]: Drug metabolism in cynomolgus monkey hepatocytes assessed as demethylation. It counts as ADME, cell-based, Macaca fascicularis, Hepatocyte.
Data set [16] deals with Hepatocyte. The data set is described as follows: Drug metabolism in human hepatocytes assessed as sulfate conjugation. It counts as ADME, cell-based.
Data set [17] in a line: Clearance in Sprague-Dawley rat at 1 mg/kg, iv administered as bolus dose by LC-MS/MS analysis. It counts as ADME, organism-based. Conditions: in vivo.
Data set [18] is described as follows: Oral bioavailability in Sprague-Dawley rat at 1 mg/kg. It counts as ADME, organism-based. The following applies: in vivo.
Data set [19] is described as follows: Drug metabolism in cynomolgus monkey urine assessed as demethylation. It counts as ADME, tissue-based, Macaca fascicularis.
Data set [20] is described as follows: Drug metabolism in cynomolgus monkey urine assessed as (2S,5S)-5-((5-(6-((4-Fluoro-3-methoxybenzyl)carbamoyl)-2-methylpyrimidin-4-yl)-2H-tetrazol-2-yl)methyl)-1,4-dioxane-2-carboxylic acid formation. It counts as ADME, tissue-based, Macaca fascicularis.
Data set [21] is described as follows: Drug metabolism in cynomolgus monkey hepatocytes assessed as (2S,5S)-5-((5-(6-((4-Fluoro-3-methoxybenzyl)carbamoyl)-2-methylpyrimidin-4-yl)-2H-tetrazol-2-yl)methyl)-1,4-dioxane-2-carboxylic acid formation. It counts as ADME, cell-based, Macaca fascicularis, Hepatocyte.
The target of another data set is Cytochrome P450 3A4 (Homo sapiens, UniProt P08684). The data set is described as follows: Inhibition of CYP3A4 (unknown origin). It counts as ADME.
The target of another data set is Cytochrome P450 2C9 (Homo sapiens, UniProt P11712). The data set is described as follows: Inhibition of CYP2C9 in human liver microsomes assessed as reduction of diclofenac metabolism after 8 mins. It counts as ADME. For orientation: Liver microsomes are vesicles of endoplasmic reticulum, rich in cytochrome P450 enzymes.
The nature of data set [22]: Clearance in cynomolgus monkey at 1 mg/kg, po and iv. It counts as ADME, organism-based, Macaca fascicularis. The following applies: in vivo.
Data set [23] can be described thus: Drug metabolism in cynomolgus monkey hepatocytes assessed as glucuronidation. It counts as ADME, cell-based, Macaca fascicularis, Hepatocyte.
Data set [24] has as its system Hepatocyte. The data set is described as follows: Drug metabolism in human hepatocytes assessed as (2S,5S)-5-((5-(6-((4-Fluoro-3-methoxybenzyl)carbamoyl)-2-methylpyrimidin-4-yl)-2H-tetrazol-2-yl)methyl)-1,4-dioxane-2-carboxylic acid formation. It counts as ADME, cell-based.
Another data set deals with Cytochrome P450 2D6 (Homo sapiens, UniProt P10635). The data set can be described thus: Inhibition of CYP2D6 (unknown origin). It counts as ADME.
The target of another data set is Stromelysin-1 (Homo sapiens, UniProt P08254). The data set is described as follows: Inhibition of MMP3 (unknown origin) catalytic domain using MCA-Arg-Pro-Leu-Gly-Leu-Dpa-Ala-Arg-Glu-Arg-NH2 as substrate preincubated for 60 mins followed by substrate addition by fluorescence assay.
The nature of data set [25]: Intrinsic clearance in human liver microsomes measured over 40 mins by HPLC/MS analysis. The following applies: read-out: CLH. It counts as ADME.
For data set [26], the system named is Cynomolgus monkey. The data set can be described thus: Drug metabolism in cynomolgus monkey assessed as (2S,5S)-5-((5-(6-((4-Fluoro-3-methoxybenzyl)carbamoyl)-2-methylpyrimidin-4-yl)-2H-tetrazol-2-yl)methyl)-1,4-dioxane-2-carboxylic acid formation at 1 mg/kg, po. It counts as ADME, organism-based, Macaca fascicularis. Conditions: in vivo.
A further data set concerns the target T1, Cytochrome P450 1A2 (Homo sapiens, UniProt P05177).
T1 sequence (P05177 whole entry): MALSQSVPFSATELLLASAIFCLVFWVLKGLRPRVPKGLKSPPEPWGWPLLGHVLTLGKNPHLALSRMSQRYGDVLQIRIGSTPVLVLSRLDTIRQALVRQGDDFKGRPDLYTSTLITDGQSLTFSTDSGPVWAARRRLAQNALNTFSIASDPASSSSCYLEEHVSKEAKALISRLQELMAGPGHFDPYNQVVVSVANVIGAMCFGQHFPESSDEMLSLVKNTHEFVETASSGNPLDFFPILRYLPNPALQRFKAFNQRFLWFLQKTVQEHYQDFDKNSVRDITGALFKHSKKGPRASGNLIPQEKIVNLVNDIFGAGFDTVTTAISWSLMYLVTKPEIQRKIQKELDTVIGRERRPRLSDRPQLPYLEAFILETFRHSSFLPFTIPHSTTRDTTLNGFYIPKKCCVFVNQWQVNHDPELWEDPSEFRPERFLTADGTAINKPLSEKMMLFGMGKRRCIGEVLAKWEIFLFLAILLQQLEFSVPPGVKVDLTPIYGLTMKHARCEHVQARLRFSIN
The data set is described as follows: Inhibition of CYP1A2 (unknown origin). It counts as ADME.

Data set [27] is described as follows: Drug metabolism in cynomolgus monkey urine assessed as sulfate conjugation. It counts as ADME, Macaca fascicularis.
Data set [28] has as its system Cynomolgus monkey. The data set is described as follows: Nephrotoxicity in cynomolgus monkey at 50 to 1000 mg/kg/day, po administered for 14 days. It counts as toxicity, organism-based, Macaca fascicularis. The following applies: in vivo, 336 h.
Data set [29] can be described thus: Oral bioavailability in beagle dog at 1 mg/kg. It counts as ADME, organism-based, Canis lupus familiaris. Conditions: in vivo.
Data set [30] is described as follows: Drug metabolism in cynomolgus monkey urine assessed as glucuronidation. It counts as ADME, tissue-based, Macaca fascicularis.

For orientation: Ki means the equilibrium dissociation constant of an inhibitor or competing ligand from its target. Usually bioavailability stands for the share of a dose that reaches the circulation, judged against a reference dose that is usually intravenous. One may read the IC50 as the concentration needed to halve the response being measured.

Sequence of Cytochrome P450 2C9 (P11712 whole entry): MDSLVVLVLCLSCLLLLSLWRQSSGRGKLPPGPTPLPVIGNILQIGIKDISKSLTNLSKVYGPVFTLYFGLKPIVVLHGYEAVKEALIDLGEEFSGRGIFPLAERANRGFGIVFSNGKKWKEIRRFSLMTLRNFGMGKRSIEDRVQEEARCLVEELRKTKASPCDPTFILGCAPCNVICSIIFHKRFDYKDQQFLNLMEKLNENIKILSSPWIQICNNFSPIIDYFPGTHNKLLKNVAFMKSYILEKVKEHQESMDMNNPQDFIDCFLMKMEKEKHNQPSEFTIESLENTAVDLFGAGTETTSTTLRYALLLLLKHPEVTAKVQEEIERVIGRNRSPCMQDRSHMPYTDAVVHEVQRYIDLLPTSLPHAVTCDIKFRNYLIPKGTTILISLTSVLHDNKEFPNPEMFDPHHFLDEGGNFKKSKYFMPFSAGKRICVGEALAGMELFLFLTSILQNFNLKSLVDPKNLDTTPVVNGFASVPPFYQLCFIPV
Sequence of Stromelysin-1 (P08254 whole entry, the tested form may be a part): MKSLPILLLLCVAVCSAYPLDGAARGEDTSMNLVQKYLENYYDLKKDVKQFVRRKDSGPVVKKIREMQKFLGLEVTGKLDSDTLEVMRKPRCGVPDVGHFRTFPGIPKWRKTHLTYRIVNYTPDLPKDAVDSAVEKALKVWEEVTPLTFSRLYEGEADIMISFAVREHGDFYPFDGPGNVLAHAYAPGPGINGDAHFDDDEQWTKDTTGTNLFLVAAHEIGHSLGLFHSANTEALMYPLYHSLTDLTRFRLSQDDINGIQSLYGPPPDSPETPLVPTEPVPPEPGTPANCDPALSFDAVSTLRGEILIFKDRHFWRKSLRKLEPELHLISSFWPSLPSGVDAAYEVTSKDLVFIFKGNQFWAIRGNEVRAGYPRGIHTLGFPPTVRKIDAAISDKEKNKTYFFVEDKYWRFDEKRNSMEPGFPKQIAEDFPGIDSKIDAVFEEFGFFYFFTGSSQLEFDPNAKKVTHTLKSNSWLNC
Sequence of Cytochrome P450 2D6 (P10635 whole entry, the tested form may be a part): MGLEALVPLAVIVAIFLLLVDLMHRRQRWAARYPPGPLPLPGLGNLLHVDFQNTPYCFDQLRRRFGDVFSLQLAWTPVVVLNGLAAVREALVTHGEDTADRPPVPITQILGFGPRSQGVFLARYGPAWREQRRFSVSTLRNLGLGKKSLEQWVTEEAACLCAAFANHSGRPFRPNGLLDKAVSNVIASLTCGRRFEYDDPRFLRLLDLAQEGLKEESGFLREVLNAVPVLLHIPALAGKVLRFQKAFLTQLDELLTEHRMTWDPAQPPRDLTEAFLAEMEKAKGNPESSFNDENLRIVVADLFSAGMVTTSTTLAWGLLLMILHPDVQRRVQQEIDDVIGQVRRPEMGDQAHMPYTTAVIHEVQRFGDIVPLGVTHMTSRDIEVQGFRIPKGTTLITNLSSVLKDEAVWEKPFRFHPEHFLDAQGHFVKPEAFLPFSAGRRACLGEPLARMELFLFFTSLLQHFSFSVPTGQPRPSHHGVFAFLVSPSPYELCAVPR
Sequence of Cytochrome P450 3A4 (P08684 whole entry): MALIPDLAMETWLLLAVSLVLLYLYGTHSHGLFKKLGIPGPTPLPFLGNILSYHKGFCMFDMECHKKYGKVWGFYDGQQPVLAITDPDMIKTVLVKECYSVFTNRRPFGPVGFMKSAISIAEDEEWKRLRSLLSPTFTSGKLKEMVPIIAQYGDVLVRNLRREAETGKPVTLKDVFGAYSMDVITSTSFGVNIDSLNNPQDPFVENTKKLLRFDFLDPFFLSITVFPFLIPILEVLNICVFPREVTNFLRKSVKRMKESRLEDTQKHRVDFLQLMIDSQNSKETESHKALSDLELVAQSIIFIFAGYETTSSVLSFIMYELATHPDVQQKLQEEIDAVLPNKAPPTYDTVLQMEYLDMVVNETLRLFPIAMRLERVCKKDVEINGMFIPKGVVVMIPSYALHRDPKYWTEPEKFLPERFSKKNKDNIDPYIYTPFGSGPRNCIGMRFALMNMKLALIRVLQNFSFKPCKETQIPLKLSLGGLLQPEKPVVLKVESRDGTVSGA

For `COc1cc(CNC(=O)c2cc(-c3nnn(C[C@H]4CO[C@H](C(=O)O)CO4)n3)nc(C)n2)ccc1F`, the Drug metabolism result (in the data set with Hepatocyte [1]; in [2]; with Rattus norvegicus [3]; with Cynomolgus monkey [4]; in data set [5]) was “metabolite_detected” each time. At Collagenase 3, the Ki is 0.0002 µM.
As to `COc1cc(CNC(=O)c2cc(-c3nnn(C[C@H]4CO[C@H](CO)CO4)n3)nc(C)n2)ccc1F`, the clearance was determined as 8.2 mL/min/kg in [6], 18.2 mL/min/kg in data set [17] and 2.1 mL/min/kg in [22]. Further, the Drug metabolism result (in the data set on Hepatocyte [7]; in data set [9]; in the data set with Rattus norvegicus [10]; in data set [11]; in data set [12]; in the data set on Hepatocyte [13]) was “metabolite_detected” in each case. In addition, the Drug metabolism entry (in the data set on Hepatocyte [14]; in data set [15]; in the data set on Hepatocyte [16]; in data set [19]; in [20]; in data set [21]) was “metabolite_detected” in each case. Besides, the Drug metabolism entry (in data set [23]; with Hepatocyte [24]; with Cynomolgus monkey [26]; in [27]; in [30]) was “metabolite_detected” each time. For the same compound, the bioavailability in data set [8] stood at 88%; in [18], 95%; in [29] it was 64%. Further, the figures for the Ki on Collagenase 3 and at Stromelysin-1 were 0.0015 µM and over 10 µM, respectively. Moreover, the half-maximal inhibitory concentration (IC50) at Cytochrome P450 3A4, at Cytochrome P450 2C9, against Cytochrome P450 2D6 and against Cytochrome P450 1A2 was over 30 µM each time. Besides, the microsomal CLint in data set [25] is under 8 µL/min/mg. Moreover, the Activity result with Cynomolgus monkey [28] is “Non-toxic”.
